The values that follow come from patent publication US9782412B2, “Preventive and/or therapeutic agent of immune disease” (TAIHO PHARMACEUTICAL CO., LTD., priority 2015, dated 2017).

T1 sequence (Q06187 whole entry): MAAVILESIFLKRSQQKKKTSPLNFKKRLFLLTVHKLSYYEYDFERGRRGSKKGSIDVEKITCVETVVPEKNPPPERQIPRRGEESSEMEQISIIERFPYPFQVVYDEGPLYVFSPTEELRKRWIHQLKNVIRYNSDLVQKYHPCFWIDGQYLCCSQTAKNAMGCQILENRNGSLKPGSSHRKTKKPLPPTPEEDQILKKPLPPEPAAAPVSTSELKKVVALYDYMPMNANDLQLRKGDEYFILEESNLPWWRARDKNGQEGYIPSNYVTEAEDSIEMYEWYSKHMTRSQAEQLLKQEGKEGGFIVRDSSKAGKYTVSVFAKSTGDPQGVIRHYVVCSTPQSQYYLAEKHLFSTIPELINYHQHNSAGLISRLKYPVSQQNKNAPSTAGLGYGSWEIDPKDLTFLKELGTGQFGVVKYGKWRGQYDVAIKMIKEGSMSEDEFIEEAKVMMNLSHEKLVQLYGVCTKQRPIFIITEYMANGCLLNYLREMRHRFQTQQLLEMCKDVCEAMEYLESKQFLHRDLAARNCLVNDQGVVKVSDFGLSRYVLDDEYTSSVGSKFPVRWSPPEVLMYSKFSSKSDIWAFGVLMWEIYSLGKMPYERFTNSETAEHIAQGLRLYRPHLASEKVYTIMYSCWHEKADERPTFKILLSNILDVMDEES

One experiment concerns the target T1, recombinant human BTK protein (Homo sapiens, UniProt Q06187).
T1 construct: purchased Carna Biosciences, Inc
The experiment can be described thus: Measurement of BTK inhibitory activity (in vitro). Type of experiment: biochemical. The following applies: ATP 45 μM, 40 minutes at 25° C. An excerpt: Regarding the setting of the conditions for a method for measuring the inhibitory activity of a compound against BTK kinase activity in vitro, it is described in the consumable reagent supplies price list for LabChip (registered trademark) series of PerkinElmer, Inc. that FL-PEPTIDE 2 corresponds to a substrate peptide for the measurement of BTK kinase activity. Therefore, FL-PEPTIDE 2 was used as a substrate. The purified recombinant human BTK protein used in the test was purchased from Carna Biosciences, Inc.
Regarding the measurement of the inhibitory activity of the compounds, firstly, the compounds of the present invention were diluted stepwise with DMSO. Subsequently, BTK protein, a substrate peptide (final concentration was 1 μM), magnesium chloride (final concentration was 10 mM), ATP (final concentration was 45 μM), and a DMSO solution of the compounds of the present invention (final concentration of DMSO was 5%) were added to a buffer solution for kinase reaction (20 mM HEPES (pH 7.5), 2 mM dithiotheitol, 0.01% Triton X-100), and after the solution was incubated for 40 minutes at 25° C., a kinase reaction was carried out. The reaction was terminated by adding EDTA thereto so as to obtain a final concentration of 30 mM. Finally, a substrate peptide that was not phosphorylated (S) and a phosphorylated peptide (P) were separated and detected by microchannel capillary electrophoresis with a LabChip EZ Reader II (PerkinElmer, Inc.).
For `C=CC(=O)N1CCC[C@@H](n2nc(C(=O)Nc3nc4cc(OC)ccc4o3)c3c(N)ncnc32)C1` [Example 7, (R)-1-(1-acryloylpiperidin-3-yl)-4-amino-N-(5-methoxybenzo[d]oxazol-2-yl)-1H-pyrazolo[3,4-d]pyrimidine-3-carboxamide], the half-inhibitory concentration (IC50) turned out to be 0.457 nM. Same read-out and setting: next, `CC#CC(=O)N1CCC[C@@H](n2nc(C(=O)Nc3nc4ccccc4o3)c3c(N)ncnc32)C1` [Example 22]: 14.2 nM.

In a further experiment the test system is A431 cells/TMD8 cells. The experiment can be described thus: Proliferation inhibitory activity against cell lines expressing BTK and EGFR, comparison of selectivity. Type of experiment: cell-based, human. The following applies: cells cultured three days with compound, CELLTITER GLO. The text has this:
TMD8 cells, which are of a diffuse large B-cell lymphoma cell line expressing BTK, were suspended in RPMI1640 medium (Life Technologies Corp.) containing 10% fetal bovine serum. A431 cells, which are of an EGFR-overexpressing, highly activated human epidermoid carcinoma cell line, were suspended in DMEM, high glucose medium (Life Technologies Corp.) containing 10% fetal bovine serum. The cell suspensions were inoculated into each well of 384-well flat-bottomed microplates, and the cells were cultured for one day at 37° C. in an incubator containing 5% carbon dioxide gas. […] A DMSO solution of the test compounds was diluted with the medium used in the suspension of the each cell, and this was added to each of the wells of the cell culture plates such that the final concentration of DMSO would be 0.2%. The cells were further cultured for three days at 37° C. in an incubator containing 5% carbon dioxide gas. […] Proliferation inhibition ratio (%)=(C−T)/(C−C0)×100
T: Luminescence intensity of a well in which the test compound was added
C: Luminescence intensity of a well in which the test compound was not added
C0: Luminescence intensity of a well measured before the addition of the test compound
When a comparison is made between the cell proliferation inhibitory activity against A431 cells that depends on the EGFR proliferation signaling and the cell proliferation inhibitory activity against TMD8 cells that depends on the BTK proliferation signaling, the influence of the respective kinases at a cellular level is able to be evaluated. That is, when the “A431 cell proliferation inhibition ratio/TMD8 cell proliferation inhibition ratio” is calculated, it is contemplated that as the value of the ratio is larger, the selectivity to BTK over EGFR in the cells is higher.
With `C=CC(=O)N1CCC[C@@H](n2nc(C(=O)Nc3nc4cc(Br)ccc4o3)c3c(N)ncnc32)C1` [Example 2, (R)-1-(1-acryloylpiperidin-3-yl)-4-amino-N-(5-bromobenzo[d]oxazol-2-yl)-1H-pyrazolo[3,4-d]pyrimidine-3-carboxamide], the “A431 cell proliferation inhibition ratio/TMD8 cell proliferation inhibition ratio” value is on record as more than 1033.6. For the compound `CCN(C)C/C=C/C(=O)N1CCC[C@@H](n2nc(C(=O)Nc3nc4cc(Cl)ccc4o3)c3c(N)ncnc32)C1` [Example 16, (R,E)-4-amino-N-(5-chlorobenzo[d]oxazol-2-yl)-1-(1-(4-(ethyl(methyl)amino)but-2-enoyl)piperidin-3-yl)-1H-pyrazolo[3,4-d]pyrimidine-3-carboxamide], the “A431 cell proliferation inhibition ratio/TMD8 cell proliferation inhibition ratio” value is on record as more than 16313.2. On the same count and under the same terms, for `CCN(CC)C/C=C/C(=O)N1CCC[C@@H](n2nc(C(=O)Nc3nc4cc(Cl)ccc4o3)c3c(N)ncnc32)C1` [Example 17, (R,E)-4-amino-N-(5-chlorobenzo[d]oxazol-2-yl)-1-(1-(4-(diethylamino)but-2-enoyl)piperidin-3-yl)-1H-pyrazolo[3,4-d]pyrimidine-3-carboxamide] the value was more than 12345.7; for `CC(C)N(C)C/C=C/C(=O)N1CCC[C@@H](n2nc(C(=O)Nc3nc4cc(Cl)ccc4o3)c3c(N)ncnc32)C1` [Example 18, (R,E)-4-amino-N-(5-chlorobenzo[d]oxazol-2-yl)-1-(1-(4-(isopropyl(methyl)amino)but-2-enoyl)piperidin-3-yl)-1H-pyrazolo[3,4-d]pyrimidine-3-carboxamide], more than 15625.0; for `Nc1ncnc2c1c(C(=O)Nc1nc3cc(Cl)ccc3o1)nn2[C@@H]1CCCN(C(=O)/C=C/CN2CCCC2)C1` [Example 19, (R,E)-4-amino-N-(5-chlorobenzo[d]oxazol-2-yl)-1-(1-(4-(pyrrolidin-1-yl)but-2-enoyl)piperidin-3-yl)-1H-pyrazolo[3,4-d]pyrimidine-3-carboxamide], more than 17825.3. On the same count and under the same terms, for `Nc1ncnc2c1c(C(=O)Nc1nc3cc(Cl)ccc3o1)nn2[C@@H]1CCCN(C(=O)/C=C/CN2CCCCC2)C1` [Example 20, (R,E)-4-amino-N-(5-chlorobenzo[d]oxazol-2-yl)-1-(1-(4-(piperidin-1-yl)but-2-enoyl)piperidin-3-yl)-1H-pyrazolo[3,4-d]pyrimidine-3-carboxamide] the value was more than 19120.5; for `C=CC(=O)N1CCC[C@@H](n2nc(C(=O)Nc3nc4cc(C)c(C)cc4o3)c3c(N)ncnc32)C1` [Example 23, (R)-1-(1-acryloylpiperidin-3-yl)-4-amino-N-(5,6-dimethylbenzo[d]oxazol-2-yl)-1H-pyrazolo[3,4-d]pyrimidine-3-carboxamide], more than 10680. Still for that read-out and setting: next, `CN(C)C/C=C/C(=O)N1CC[C@@H](n2nc(C(=O)Nc3nc4cc(Cl)ccc4o3)c3c(N)ncnc32)C1` [Example 32, (R,E)-4-amino-N-(5-chlorobenzo[d]oxazol-2-yl)-1-(1-(4-(dimethylamino)but-2-enoyl)pyrrolidin-3-yl)-1H-pyrazolo[3,4-d]pyrimidine-3-carboxamide]: more than 11123.5. For the compound `CCN(CC)C/C=C/C(=O)N1CC[C@@H](n2nc(C(=O)Nc3nc4cc(Cl)ccc4o3)c3c(N)ncnc32)C1` [Example 34, (R,E)-4-amino-N-(5-chlorobenzo[d]oxazol-2-yl)-1-(1-(4-(diethylamino)but-2-enoyl)pyrrolidin-3-yl)-1H-pyrazolo[3,4-d]pyrimidine-3-carboxamide], the “A431 cell proliferation inhibition ratio/TMD8 cell proliferation inhibition ratio” value is more than 22471.9.

Turning to `CC(C)N(C)C/C=C/C(=O)N1CC[C@@H](n2nc(C(=O)Nc3nc4cc(Cl)ccc4o3)c3c(N)ncnc32)C1` [Example 35, (R,E)-4-amino-N-(5-chlorobenzo[d]oxazol-2-yl)-1-(1-(4-(isopropyl(methyl)amino)but-2-enoyl)pyrrolidin-3-yl)-1H-pyrazolo[3,4-d]pyrimidine-3-carboxamide], the “A431 cell proliferation inhibition ratio/TMD8 cell proliferation inhibition ratio” value is more than 18691.6.

As for `C=CC(=O)N1CC[C@@H](n2nc(C(=O)Nc3nc4cc(C#N)ccc4o3)c3c(N)ncnc32)C1` [Example 39, (R)-1-(1-acryloylpyrrolidin-3-yl)-4-amino-N-(5-cyanobenzo[d]oxazol-2-yl)-1H-pyrazolo[3,4-d]pyrimidine-3-carboxamide], the “A431 cell proliferation inhibition ratio/TMD8 cell proliferation inhibition ratio” value is more than 3510.0.

`C=CC(=O)N1CC[C@@H](n2nc(C(=O)Nc3nc4cc(CCOC)ccc4o3)c3c(N)ncnc32)C1` [Example 40, (R)-1-(1-acryloylpyrrolidin-3-yl)-4-amino-N-(5-(2-methoxyethyl)benzo[d]oxazol-2-yl)-1H-pyrazolo[3,4-d]pyrimidine-3-carboxamide]: the “A431 cell proliferation inhibition ratio/TMD8 cell proliferation inhibition ratio” value is listed as more than 3159.6. `CN(C)C/C=C/C(=O)N1CC[C@@H](n2cc(C(=O)Nc3nc4cc(Cl)ccc4o3)c3c(N)ncnc32)C1` [Example 49, (R,E)-4-amino-N-(5-chlorobenzo[d]oxazol-2-yl)-7-(1-(4-(dimethylamino)but-2-enoyl)pyrrolidin-3-yl) 7H-pyrrolo[2,3-d]pyrimidine-5-carboxamide]: the “A431 cell proliferation inhibition ratio/TMD8 cell proliferation inhibition ratio” value was more than 3260.5.

For the compound `CCN(C)C/C=C/C(=O)N1CC[C@@H](n2cc(C(=O)Nc3nc4cc(Cl)ccc4o3)c3c(N)ncnc32)C1` [Example 50, (R,E)-4-amino-N-(5-chlorobenzo[d]oxazol-2-yl)-7-(1-(4-(ethyl(methyl)amino)but-2-enoyl)pyrrolidin-3-yl) 7H-pyrrolo[2,3-d]pyrimidine-5-carboxamide], the “A431 cell proliferation inhibition ratio/TMD8 cell proliferation inhibition ratio” value was more than 2767.8. In the case of `CCN(CC)C/C=C/C(=O)N1CC[C@@H](n2cc(C(=O)Nc3nc4cc(Cl)ccc4o3)c3c(N)ncnc32)C1` [Example 51, (R,E)-4-amino-N-(5-chlorobenzo[d]oxazol-2-yl)-7-(1-(4-(diethylamino)but-2-enoyl)pyrrolidin-3-yl) 7H-pyrrolo[2,3-d]pyrimidine-5-carboxamide], the “A431 cell proliferation inhibition ratio/TMD8 cell proliferation inhibition ratio” value is on record as more than 2044.6.

Regarding `CC(C)N(C)C/C=C/C(=O)N1CC[C@@H](n2cc(C(=O)Nc3nc4cc(Cl)ccc4o3)c3c(N)ncnc32)C1` [Example 52, (R,E)-4-amino-N-(5-chlorobenzo[d]oxazol-2-yl)-7-(1-(4-(isopropyl(methyl)amino)but-2-enoyl)pyrrolidin-3-yl) 7H-pyrrolo[2,3-d]pyrimidine-5-carboxamide], the “A431 cell proliferation inhibition ratio/TMD8 cell proliferation inhibition ratio” value is more than 3617.9. As to `Nc1ncnc2c1c(C(=O)Nc1nc3cc(Cl)ccc3o1)cn2[C@@H]1CCN(C(=O)/C=C/CN2CCCC2)C1` [Example 53, (R,E)-4-amino-N-(5-chlorobenzo[d]oxazol-2-yl)-7-(1-(4-(pyrrolidin-1-yl)but-2-enoyl)pyrrolidin-3-yl) 7H-pyrrolo[2,3-d]pyrimidine-5-carboxamide], the “A431 cell proliferation inhibition ratio/TMD8 cell proliferation inhibition ratio” value is reported as more than 1535.4. Same read-out and setting: next, `Nc1ncnc2c1c(C(=O)Nc1nc3cc(Cl)ccc3o1)cn2[C@@H]1CCN(C(=O)/C=C/CN2CCCCC2)C1` [Example 54, (R,E)-4-amino-N-(5-chlorobenzo[d]oxazol-2-yl)-7-(1-(4-(piperidin-1-yl)but-2-enoyl)pyrrolidin-3-yl) 7H-pyrrolo[2,3-d]pyrimidine-5-carboxamide]: more than 2675.9.
